Earlier results in patent publication US20110130355A1, “USE OF SOPHORICOSIDE IN THE MANUFACTURE OF MEDICAMENTS” (priority 2008, published 2011).
Read-outs that look alike come from different tables or passages of the source.

Assays:
[1] = tested on: femoral-metaphyseal tissues; details: in vitro, tissues from aging female rats; cited from earlier work
[2] = tested on: rabbit articular chondrocytes; details: cited from earlier work
ovariectomized rats = details: cited from earlier work

Row | Compound | contents of alkaline phosphatase, DNA and calcium in the femoral-metaphyseal tissues [1] | degradation of proteoglycan induced by interleukin (IL) 1β ([2]; high concentration, 10 nmol/l) | degradation of proteoglycan induced by interleukin (IL) 1β ([2]; low concentration, 0.1 nmol/l) | loss of bone mass (ovariectomized rats)
1 | O=c1c(-c2ccc(O)cc2)coc2cc(O)cc(O)c12 [genistein] | substantially increases | – | – | –
2 | C[C@]12CC[C@@H]3c4ccc(O)cc4CC[C@H]3[C@@H]1CC[C@@H]2O [17β-estradiol] | – | increased its effect | inhibited the degradation of proteoglycan induced by interleukin (IL) 1β | –
3 | O=c1c(-c2ccc(O)cc2)coc2cc(O[C@@H]3O[C@H](CO)[C@@H](O)[C@H](O)[C@H]3O)cc(O)c12 [genistin, genistein-7-O-glucopyranoside] | substantially increases | – | – | prevent loss of bone mass
